Experimental data from PubChem BioAssay AID264 (DTP/NCI, 2004).
“And” between values parts separate entries of the source, which are not always exact repeats. Equal values may be shown once. Results filed as inconclusive are left out.

System: nude mice, LX-1 lung xenograft intrarenal, tumor weight T/C
Assay: NCI In Vivo Anticancer Drug Screen. Data for tumor model Human Lung LX-1 Xenograft (intrarenal inoculation) in NU/NU Swiss (nude) mice
Settings: endpoint: mean tumor weight change, higher = larger tumour
Outline: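 Compound-treated mice carrying transplanted tumors were compared with vehicle-treated controls. Tumor size was the measured end point, and the value is the treated-group measurement divided by the control-group measurement (T/C).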

[1] = dose: 300.0 mg/kg/injection, schedule: Q04DX003 (sc), vehicle: saline with Tween-80
[2] = dose: 600.0 mg/kg/injection, schedule: Q04DX003 (sc), vehicle: saline with Tween-80
[3] = dose: 1200.0 mg/kg/injection, schedule: Q04DX003 (sc), vehicle: saline with Tween-80
[4] = dose: 2400.0 mg/kg/injection, schedule: Q04DX003 (sc), vehicle: saline with Tween-80
[5] = dose: 200.0 mg/kg/injection, schedule: Q01DX010 (sc), vehicle: saline
[6] = dose: 400.0 mg/kg/injection, schedule: Q01DX010 (sc), vehicle: saline
[7] = dose: 300.0 mg/kg/injection, schedule: Q04DX003 (sc), vehicle: suspension in saline
[8] = dose: 600.0 mg/kg/injection, schedule: Q04DX003 (sc), vehicle: suspension in saline

## CCCCCCCCCCCCCCCC(=O)Nc1ccn(C2OC(CO)C(O)C2O)c(=O)n1 (stereo not drawn)
dose: 150.0 mg/kg/injection, schedule: Q04DX003 (sc), vehicle: water
  T/C: 32 % of control and 33 % of control

## Cc1c(N)nc(C(CC(N)=O)NCC(N)C(N)=O)nc1C(=O)NC(C(=O)NC(C)C(O)C(C)C(=O)NC(C(=O)NCCc1nc(-c2nc(C(=O)NCCCNC(C)c3ccccc3)cs2)cs1)C(C)O)C(OC1OC(CO)C(O)C(O)C1OC1OC(CO)C(O)C(OC(N)=O)C1O)c1cnc[nH]1 (stereo not drawn)
dose: 2.0 mg/kg/injection, schedule: Q01DX010 (sc), vehicle: saline
  T/C: 53 % of control
dose: 4.0 mg/kg/injection, schedule: Q01DX010 (sc), vehicle: saline
  T/C: 32 % of control
dose: 16.0 mg/kg/injection, schedule: Q01DX010 (sc), vehicle: saline
  T/C: 22 % of control and 28 % of control
dose: 32.0 mg/kg/injection, schedule: Q01DX010 (sc), vehicle: saline
  T/C: 39 % of control

## Cc1cc(NCCCCCCCCNc2cc(C)nc3cc(N(C)C)ccc23)c2ccc(N(C)C)cc2n1
dose: 18.75 mg/kg/injection, schedule: Q01DX010 (sc), vehicle: saline with Tween-80
  T/C: 56 % of control
dose: 37.5 mg/kg/injection, schedule: Q01DX010 (sc), vehicle: saline with Tween-80
  T/C: 34 % of control and 45 % of control
dose: 75.0 mg/kg/injection, schedule: Q04DX003 (sc), vehicle: distilled water + Tween-80 + alcohol
  T/C: 42 % of control and 60 % of control
dose: 150.0 mg/kg/injection, schedule: Q04DX003 (sc), vehicle: distilled water + Tween-80 + alcohol
  T/C: 61 % of control and 72 % of control
dose: 300.0 mg/kg/injection, schedule: Q04DX003 (sc), vehicle: distilled water + Tween-80 + alcohol
  T/C: 33 % of control and 39 % of control
dose: 600.0 mg/kg/injection, schedule: Q04DX003 (sc), vehicle: distilled water + Tween-80 + alcohol
  T/C: 25 % of control

## COC1=C(NC(C)=O)C(=O)c2nc(-c3nc(C(=O)O)c(C)c(-c4ccc(OC)c(OC)c4O)c3N)ccc2C1=O
dose: 25.0 mg/kg/injection, schedule: Q04DX003 (sc), vehicle: Klucel (hydroxypropylcellulose) (HPC)
  T/C: 63 % of control
dose: 50.0 mg/kg/injection, schedule: Q04DX003 (sc), vehicle: Klucel (hydroxypropylcellulose) (HPC)
  T/C: 55 % of control
dose: 100.0 mg/kg/injection, schedule: Q04DX003 (sc), vehicle: Klucel (hydroxypropylcellulose) (HPC)
  T/C: 40 % of control

## Cn1cnc([N+](=O)[O-])c1[Se]c1nc(N)nc2nc[nH]c12
dose: 12.5 mg/kg/injection, schedule: Q01DX010 (sc), vehicle: water
  T/C: 63 % of control
dose: 25.0 mg/kg/injection, schedule: Q01DX010 (sc), vehicle: water
  T/C: 68 % of control
dose: 50.0 mg/kg/injection, schedule: Q01DX010 (sc), vehicle: water
  T/C: 176 % of control
dose: 100.0 mg/kg/injection, schedule: Q01DX010 (sc), vehicle: water
  T/C: 68 % of control

## c1cc(NC2CCCCC2)ccc1CN1CCOCC1
dose: 50.0 mg/kg/injection, schedule: Q01DX010 (sc), vehicle: saline + Tween-80 + alcohol
  T/C: 38 % of control
dose: 100.0 mg/kg/injection, schedule: Q01DX010 (sc), vehicle: saline + Tween-80 + alcohol
  T/C: 74 % of control
dose: 800.0 mg/kg/injection, schedule: Q01DX010 (sc), vehicle: saline + Tween-80 + alcohol
  T/C: 84 % of control
dose: 1600.0 mg/kg/injection, schedule: Q01DX010 (sc), vehicle: saline + Tween-80 + alcohol
  T/C: 84 % of control

## C=CCc1cn(C2CC(O)C(CO)O2)c(=O)[nH]c1=O (stereo not drawn)
dose: 300.0 mg/kg/injection, schedule: Q04DX003 (sc), vehicle: saline
  T/C: 91 % of control
dose: 600.0 mg/kg/injection, schedule: Q04DX003 (sc), vehicle: saline
  T/C: 82 % of control
dose: 1200.0 mg/kg/injection, schedule: Q04DX003 (sc), vehicle: saline
  T/C: 74 % of control
dose: 2400.0 mg/kg/injection, schedule: Q04DX003 (sc), vehicle: saline
  T/C: 111 % of control

## CCOC(=O)CNC(=O)CCCCSc1ncnc2nc[nH]c12
[1]
  T/C: 80 % of control
[2]
  T/C: 86 % of control
[3]
  T/C: 85 % of control
[4]
  T/C: 114 % of control

## CCCC(=O)O
dose: 100.0 mg/kg/injection, schedule: Q01DX010 (sc), vehicle: saline
  T/C: 103 % of control
[5]
  T/C: 77 % of control
[6]
  T/C: 71 % of control

## O=S1(=O)C=C(c2ccccc2)C(c2ccccc2)=C1
dose: 75.0 mg/kg/injection, schedule: Q04DX003 (sc), vehicle: saline with Tween-80
  T/C: 59 % of control
dose: 150.0 mg/kg/injection, schedule: Q04DX003 (sc), vehicle: saline with Tween-80
  T/C: 81 % of control
[1]
  T/C: 59 % of control
[2]
  T/C: 71 % of control

## Cc1noc(N)c1N
dose: 600.0 mg/kg/injection, schedule: Q04DX003 (sc), vehicle: water
  T/C: 106 % of control
dose: 1200.0 mg/kg/injection, schedule: Q04DX003 (sc), vehicle: water
  T/C: 94 % of control

## COc1cccc2c1C(=O)c1c(O)c3c(c(O)c1C2=O)C[C@@](O)(C(=O)CO)C[C@@H]3OC1CC(N)C(O)C(C)O1 (stereo partly drawn)
dose: 4.0 mg/kg/injection, schedule: Q04DX003 (sc), vehicle: water
  T/C: 45 % of control and 53 % of control
dose: 4.5 mg/kg/injection, schedule: Q04DX003 (sc), vehicle: saline
  T/C: 72 % of control
dose: 9.0 mg/kg/injection, schedule: Q04DX003 (sc), vehicle: saline
  T/C: 44 % of control

## CN(Cc1cnc2nc(N)nc(N)c2n1)c1c(Cl)cc(C(=O)NC(CCC(=O)O)C(=O)O)cc1Cl (stereo not drawn)
dose: 12.5 mg/kg/injection, schedule: Q01DX010 (sc), vehicle: Klucel (hydroxypropylcellulose) (HPC)
  T/C: 73 % of control
dose: 25.0 mg/kg/injection, schedule: Q01DX010 (sc), vehicle: Klucel (hydroxypropylcellulose) (HPC)
  T/C: 48 % of control
dose: 50.0 mg/kg/injection, schedule: Q01DX010 (sc), vehicle: Klucel (hydroxypropylcellulose) (HPC)
  T/C: 45 % of control

## O=c1[nH]cnc2[nH]ncc12
dose: 150.0 mg/kg/injection, schedule: Q04DX003 (sc), vehicle: suspension in saline
  T/C: 88 % of control
[7]
  T/C: 100 % of control
[8]
  T/C: 61 % of control

## COC(=O)Nc1nc2ccc(SC)cc2c(=O)[nH]1
dose: 300.0 mg/kg/injection, schedule: Q04DX003 (sc), vehicle: Klucel (hydroxypropylcellulose) (HPC)
  T/C: 93 % of control
dose: 600.0 mg/kg/injection, schedule: Q04DX003 (sc), vehicle: Klucel (hydroxypropylcellulose) (HPC)
  T/C: 93 % of control
dose: 1200.0 mg/kg/injection, schedule: Q04DX003 (sc), vehicle: Klucel (hydroxypropylcellulose) (HPC)
  T/C: 95 % of control
dose: 2400.0 mg/kg/injection, schedule: Q04DX003 (sc), vehicle: Klucel (hydroxypropylcellulose) (HPC)
  T/C: 92 % of control

## CC(=O)NCCCCCCNC(C)=O
[5]
  T/C: 106 % of control
[6]
  T/C: 45 % of control
dose: 800.0 mg/kg/injection, schedule: Q01DX010 (sc), vehicle: saline
  T/C: 105 % of control and 114 % of control
dose: 3200.0 mg/kg/injection, schedule: Q01DX010 (sc), vehicle: saline
  T/C: 96 % of control

## CCCCCCCCSC1=C(Cl)C(=O)C(OC)=C(OC)C1=O
dose: 18.0 mg/kg/injection, schedule: Q04DX003 (sc), vehicle: saline with Tween-80
  T/C: 82 % of control
dose: 36.0 mg/kg/injection, schedule: Q04DX003 (sc), vehicle: saline with Tween-80
  T/C: 81 % of control
dose: 144.0 mg/kg/injection, schedule: Q04DX003 (sc), vehicle: saline with Tween-80
  T/C: 57 % of control

## O=c1cc(-c2ccccc2)[nH]c2c1CCCC2
[1]
  T/C: 114 % of control
[2]
  T/C: 113 % of control
[3]
  T/C: 113 % of control
[4]
  T/C: 106 % of control

## O=C1NC(O)c2ccccc2O1 (stereo not drawn)
[7]
  T/C: 102 % of control
[8]
  T/C: 79 % of control
dose: 1200.0 mg/kg/injection, schedule: Q04DX003 (sc), vehicle: suspension in saline
  T/C: 63 % of control
dose: 2400.0 mg/kg/injection, schedule: Q04DX003 (sc), vehicle: suspension in saline
  T/C: 86 % of control

## c1ccc2c(NCCCCCCNc3c4ccccc4nc4ccccc34)c3ccccc3nc2c1
dose: 5.0 mg/kg/injection, schedule: Q01DX010 (sc), vehicle: Klucel (hydroxypropylcellulose) (HPC)
  T/C: 102 % of control

## CCC1=C[C@H]2CN(CCc3c([nH]c4ccccc34)[C@@](C(=O)OC)(c3cc4c(cc3OC)N(C)[C@H]3[C@@](O)(C(=O)OC)[C@H](OC(C)=O)[C@]5(CC)C=CCN6CC[C@]43[C@@H]65)C2)C1
dose: 6.0 mg/kg/injection, schedule: Q04DX003 (sc), vehicle: water
  T/C: 106 % of control
dose: 12.0 mg/kg/injection, schedule: Q04DX003 (sc), vehicle: water
  T/C: 89 % of control

## CC(=O)NC(C=O)OCC=O (stereo not drawn)
dose: 100.0 mg/kg/injection, schedule: Q04DX003 (sc), vehicle: water
  T/C: 116 % of control
dose: 200.0 mg/kg/injection, schedule: Q04DX003 (sc), vehicle: water
  T/C: 112 % of control
dose: 400.0 mg/kg/injection, schedule: Q04DX003 (sc), vehicle: water
  T/C: 121 % of control
